How the values were obtained:
PC-3 [1] = assay: Cytotoxicity against human androgen-independent PC3 cells at 1 uM by MTT assay; type: functional
LNCaP [2] = assay: Cytotoxicity against human androgen-dependent LNCAP cells at 1 uM by MTT assay; type: functional
PC-3 [3] = assay: Cytotoxicity against human androgen-independent PC3 cells by MTT assay; type: functional, cell-based
DU-145 [4] = assay: Cytotoxicity against human androgen-independent DU145 cells by MTT assay; type: functional, cell-based
MCF-10A = assay: Cytotoxicity against human MCF10A cells at 1 uM by MTT assay; type: cell-based
DU-145 [5] = assay: Cytotoxicity against human androgen-independent DU145 cells at 1 uM by MTT assay; type: functional
LNCaP [6] = assay: Cytotoxicity against human androgen-dependent LNCAP cells by MTT assay; type: functional, cell-based
DU-145 [7] = assay: Ratio of doxorubicin IC50 to compound IC50 for human androgen-independent DU145 cells

For CC(O)(CSc1ccc(Cl)cc1)c1nc(-c2ccc([N+](=O)[O-])c(C(F)(F)F)c2)no1 (centres undefined), the Activity (PC-3 [1]) was 39.61%, the Activity (LNCaP [2]) was 28.93% and the IC50 (PC-3 [3]) was 3 µM. The IC50 (DU-145 [4]) was 1.3 µM, the Activity (MCF-10A) was 10.35% and the Activity (DU-145 [5]) was 48.93%. For the same molecule, the IC50 (LNCaP [6]) was > 100 µM.

CC(O)(CSc1ccc(Br)cc1)c1nc(-c2ccc([N+](=O)[O-])c(C(F)(F)F)c2)no1 (centres undefined) was tested, and the Activity (PC-3 [1]) was 31.77%, the Activity (LNCaP [2]) was 27.45% and the IC50 (PC-3 [3]) was 51 µM. The IC50 (DU-145 [4]) was 1.6 µM, the Activity (MCF-10A) was 10.55% and the Activity (DU-145 [5]) was 48.71%. The IC50 (LNCaP [6]) was 40 µM.

CC(O)(CSc1ccccc1)c1nc(-c2ccccc2)no1 (centres undefined) was tested, and the IC50 (DU-145 [4]) was > 100 µM.

CC(O)(CSc1ccc(F)cc1)c1nc(-c2ccccc2)no1 (centres undefined) was tested, and the IC50 (DU-145 [4]) was > 100 µM.

Work on CC(O)(CSc1ccc(Cl)cc1)c1nc(-c2ccccc2)no1 (centres undefined) yielded an IC50 (DU-145 [4]) of 70.7 µM.

In the case of CC(O)(CSc1ccc(Br)cc1)c1nc(-c2ccccc2)no1 (centres undefined), the IC50 (DU-145 [4]) is reported as > 100 µM.

CC(O)(CSc1ccccc1)c1nc(-c2ccc(Cl)cc2)no1 (centres undefined) was tested, and the IC50 (DU-145 [4]) was 4.5 µM.

CC(O)(CSc1ccc(F)cc1)c1nc(-c2ccc(Cl)cc2)no1 (centres undefined) was tested, and the IC50 (DU-145 [4]) was 36.2 µM.

For CC(O)(CSc1ccc(Cl)cc1)c1nc(-c2ccc(Cl)cc2)no1 (centres undefined), the IC50 (DU-145 [4]) was 14.5 µM.

CC(O)(CSc1ccc(Br)cc1)c1nc(-c2ccc(Cl)cc2)no1 (centres undefined) gave an IC50 (DU-145 [4]) of 6.5 µM.

CC(O)(CSc1ccccc1)c1nc(-c2ccc(F)c(Cl)c2)no1 (centres undefined) showed an IC50 (DU-145 [4]) of 5.5 µM.

With CC(O)(CSc1ccc(F)cc1)c1nc(-c2ccc(F)c(Cl)c2)no1 (centres undefined) the Activity (PC-3 [1]) was 40.77%, the Activity (LNCaP [2]) was 32.86% and the IC50 (PC-3 [3]) was 11.5 µM. For the same molecule, the IC50 (DU-145 [4]) was 2.9 µM, the Activity (MCF-10A) was 12.44% and the Activity (DU-145 [5]) was 47.84%. The IC50 (LNCaP [6]) was > 100 µM.

CC(O)(CSc1ccc(Cl)cc1)c1nc(-c2ccc(F)c(Cl)c2)no1 (centres undefined) showed an Activity (PC-3 [1]) of 44.39%, an Activity (LNCaP [2]) of 33.85% and an IC50 (PC-3 [3]) of 10 µM. For the same molecule, the “Ratio IC50” value (DU-145 [7]) was 11.6, the IC50 (DU-145 [4]) was 0.5 µM and the Activity (MCF-10A) was 10.62%. It also gave an Activity (DU-145 [5]) of 68.41% and an IC50 (LNCaP [6]) of 26.4 µM.

Molecule CC(O)(CSc1ccc(Br)cc1)c1nc(-c2ccc(F)c(Cl)c2)no1 (centres undefined) has an IC50 (DU-145 [4]) of 8.8 µM.

In the case of CC(O)(CSc1ccccc1)c1nc(-c2ccc([N+](=O)[O-])c(C(F)(F)F)c2)no1 (centres undefined), the Activity (PC-3 [1]) is reported as 49.02%, the Activity (LNCaP [2]) is reported as 31.1% and the IC50 (PC-3 [3]) is reported as 3.5 µM. For the same molecule, the IC50 (DU-145 [4]) was 3 µM, the Activity (MCF-10A) was 12.62% and the Activity (DU-145 [5]) was 49.62%. It also gave an IC50 (LNCaP [6]) of 9.67 µM.

CC(O)(CSc1ccc(F)cc1)c1nc(-c2ccc([N+](=O)[O-])c(C(F)(F)F)c2)no1 (centres undefined) was tested, and the Activity (PC-3 [1]) was 46.89%, the Activity (LNCaP [2]) was 26.88% and the IC50 (PC-3 [3]) was 5.5 µM. For the same molecule, the IC50 (DU-145 [4]) was 5.1 µM, the Activity (MCF-10A) was 11.35% and the Activity (DU-145 [5]) was 47.28%. For the same molecule, the IC50 (LNCaP [6]) was 8.15 µM.

For CC(O)(CS(=O)(=O)c1ccccc1)c1nc(-c2ccccc2)no1 (centres undefined), the IC50 (DU-145 [4]) was > 100 µM.

In the case of CC(O)(CS(=O)(=O)c1ccc(F)cc1)c1nc(-c2ccccc2)no1 (centres undefined), the IC50 (DU-145 [4]) is reported as > 100 µM.

With CC(O)(CS(=O)(=O)c1ccc(Cl)cc1)c1nc(-c2ccccc2)no1 (centres undefined) the IC50 (DU-145 [4]) was > 100 µM.

In the case of CC(O)(CS(=O)(=O)c1ccc(Br)cc1)c1nc(-c2ccccc2)no1 (centres undefined), the IC50 (DU-145 [4]) is reported as > 100 µM.

In the case of CC(O)(CS(=O)(=O)c1ccccc1)c1nc(-c2ccc(Cl)cc2)no1 (centres undefined), the IC50 (DU-145 [4]) is reported as > 100 µM.

In the case of CC(O)(CS(=O)(=O)c1ccc(F)cc1)c1nc(-c2ccc(Cl)cc2)no1 (centres undefined), the IC50 (DU-145 [4]) is reported as > 100 µM.

CC(O)(CS(=O)(=O)c1ccc(Cl)cc1)c1nc(-c2ccc(Cl)cc2)no1 (centres undefined) was tested, and the IC50 (DU-145 [4]) was > 100 µM.

With CC(O)(CS(=O)(=O)c1ccc(Br)cc1)c1nc(-c2ccc(Cl)cc2)no1 (centres undefined) the IC50 (DU-145 [4]) was > 100 µM.

In the case of CC(O)(CS(=O)(=O)c1ccccc1)c1nc(-c2ccc(F)c(Cl)c2)no1 (centres undefined), the IC50 (DU-145 [4]) is reported as > 100 µM.

For CC(O)(CS(=O)(=O)c1ccc(F)cc1)c1nc(-c2ccc(F)c(Cl)c2)no1 (centres undefined), the IC50 (DU-145 [4]) was > 100 µM.

Molecule CC(O)(CS(=O)(=O)c1ccc(Cl)cc1)c1nc(-c2ccc(F)c(Cl)c2)no1 (centres undefined) has an IC50 (DU-145 [4]) of 35.5 µM.

With CC(O)(CS(=O)(=O)c1ccc(Br)cc1)c1nc(-c2ccc(F)c(Cl)c2)no1 (centres undefined) the IC50 (DU-145 [4]) was 75 µM.

In the case of CC(O)(CS(=O)(=O)c1ccccc1)c1nc(-c2ccc([N+](=O)[O-])c(C(F)(F)F)c2)no1 (centres undefined), the IC50 (DU-145 [4]) is reported as > 100 µM.

For CC(O)(CS(=O)(=O)c1ccc(F)cc1)c1nc(-c2ccc([N+](=O)[O-])c(C(F)(F)F)c2)no1 (centres undefined), the IC50 (DU-145 [4]) was > 100 µM.

Work on CC(O)(CS(=O)(=O)c1ccc(Cl)cc1)c1nc(-c2ccc([N+](=O)[O-])c(C(F)(F)F)c2)no1 (centres undefined) yielded an IC50 (DU-145 [4]) of 91 µM.

With CC(O)(CS(=O)(=O)c1ccc(Br)cc1)c1nc(-c2ccc([N+](=O)[O-])c(C(F)(F)F)c2)no1 (centres undefined) the IC50 (DU-145 [4]) was > 100 µM.

Work on CC(O)(CS(=O)(=O)c1ccc(F)cc1)C(=O)Nc1ccc(C#N)c(C(F)(F)F)c1 (centres undefined) [BICALUTAMIDE] yielded an IC50 (PC-3 [3]) of 77 µM, an IC50 (DU-145 [4]) of 64 µM and an IC50 (LNCaP [6]) of 1.71 µM.

In the case of COc1cccc2c1C(=O)c1c(O)c3c(c(O)c1C2=O)C[C@@](O)(C(=O)CO)C[C@@H]3O[C@H]1C[C@H](N)[C@H](O)[C@H](C)O1 [DOXORUBICIN], the IC50 (PC-3 [3]) is reported as 1.05 µM and the IC50 (DU-145 [4]) is reported as 5.8 µM.

Source: ChEMBL document CHEMBL1955722, “1,2,4-Oxadiazoles: a new class of anti-prostate cancer agents” (Bioorg Med Chem Lett, 2012)
